{"source": "paper PMC7754187", "about": "(ACS Chemical Biology, 2020)", "system": "seven human 14-3-3 isoforms", "test": "FA of ERRγ phosphopeptides with the seven 14-3-3 isoforms", "assay_type": "binding", "details": "14-3-3γ compared with other isoforms; Figure 2b, Figure S1", "note": "Non-standard residues stand in square brackets, D forms with d. Residues, ends and D or L forms follow the SMILES beside them. pS = N[C@@H](COP(=O)(O)O)C(=O)O"}
{"smiles": "CC(=O)N[C@@H](CCCCN)C(=O)N[C@@H](CCCNC(=N)N)C(=O)N[C@@H](CCCNC(=N)N)C(=O)N[C@@H](CCCNC(=N)N)C(=O)N[C@@H](CCCCN)C(=O)N[C@@H](COP(=O)(O)O)C(=O)N[C@@H](CS)C(=O)N[C@@H](CCC(N)=O)C(=O)N[C@@H](C)C(N)=O", "note": "[DBD] (Ac-KRRRK[pS]CQA-NH2)", "values": [{"measurement": "Relative affinity among 14-3-3 isoforms (in words)", "value": "highest affinity"}]}
